Earlier results, collected in article PMC11982978, “Cancer hotspot mutations rewire ERK2 specificity by selective exclusion of docking interactions” (The Journal of Biological Chemistry, 2025).

test system: WT ERK2; conditions: selective conditions (-His); hits Z > 3; average of three screens; cited from earlier work
From the text: Supplement mmc2.xlsx, sheet "WT Hits" | column: Z-score

Sequence	Z-score (ES) of hit sequences, WT ERK2 Y2H screen
PKRKEPGRSLRIKV [DNAJC27, D-site 14-mer in ELK1 Y2H prey]	6.00
AKRRIANLKIQLAK [WWC1, D-site 14-mer in ELK1 Y2H prey]	3.55
RRRGTRPPLLALLA [ROR1, D-site 14-mer in ELK1 Y2H prey]	4.89
PDRKVKPAPLEIKP [GAB1, D-site 14-mer in ELK1 Y2H prey]	10.25
IKMKPKPRILSIKS [MAP9, D-site 14-mer in ELK1 Y2H prey]	3.08
ITSKQRPRKLTLMG [MTOR, D-site 14-mer in ELK1 Y2H prey]	4.58
RPRCRRQPRLRLPT [EPM2A, D-site 14-mer in ELK1 Y2H prey]	13.05
IFQRQRVDALLLDL [MED6, D-site 14-mer in ELK1 Y2H prey]	7.05
LRPLRPKPPLLLPK [RREB1, D-site 14-mer in ELK1 Y2H prey]	9.18
KKTRKLKIALALSD [PLCZ1, D-site 14-mer in ELK1 Y2H prey]	3.78
QVKLRSRTSLTLPR [RGL1, D-site 14-mer in ELK1 Y2H prey]	4.63
RKARRLEPGLLLPG [SOX18, D-site 14-mer in ELK1 Y2H prey]	7.78
KLDKSPFVVVSVVG [TTC28, D-site 14-mer in ELK1 Y2H prey]	3.83
RKTKKKKSHLSLVG [ATXN7L3, D-site 14-mer in ELK1 Y2H prey]	3.39
KQRKLSPLRLSVSN [KMT2E, D-site 14-mer in ELK1 Y2H prey]	4.49
KQGGRKPKPLWLSP [KIAA0556, D-site 14-mer in ELK1 Y2H prey]	4.98
KCSRKKKPKLSLKA [L3MBTL3, D-site 14-mer in ELK1 Y2H prey]	10.66
QVPKKAWRKLKLPG [DCAF11, D-site 14-mer in ELK1 Y2H prey]	5.07
RKPRSPPRALVLPH [PEG10, D-site 14-mer in ELK1 Y2H prey]	3.94
EEEFRKLTNVRIMK [PTPRE, D-site 14-mer in ELK1 Y2H prey]	8.60
PDGKKRRKVLALPS [RBM28, D-site 14-mer in ELK1 Y2H prey]	5.03
KSRQKNPRSLCIQP [MTUS1, D-site 14-mer in ELK1 Y2H prey]	4.97
SKGKKRNPGLKIPK [MAP2K6, D-site 14-mer in ELK1 Y2H prey]	8.58
PFGSRRSSAIGIEN [RAP1GAP, D-site 14-mer in ELK1 Y2H prey]	5.61
VVALRKKQQLAIGP [AGAP3, D-site 14-mer in ELK1 Y2H prey]	6.33
YKMKFFTKCVAFSK [LRP2BP, D-site 14-mer in ELK1 Y2H prey]	3.15
GRPLRLPPPLRLLR [GNAS, D-site 14-mer in ELK1 Y2H prey]	3.08

Sequence	Z-score (ES) of hit sequences, WT ERK2 Y2H screen
SPKWKNFKGLKLQW [MLXIP, D-site 14-mer in ELK1 Y2H prey]	8.72
TKMQKKVLSLRLPC [RIN2, D-site 14-mer in ELK1 Y2H prey]	7.27
EERKTKRPSLRLFG [PPARGC1A, D-site 14-mer in ELK1 Y2H prey]	4.99
KGVKHRPPPIKLPS [SUPT20H, D-site 14-mer in ELK1 Y2H prey]	18.07
PIKQKRKLRIFISN [SMARCD1, D-site 14-mer in ELK1 Y2H prey]	4.04
IPKNRIHHKLVLPS [CENPC, D-site 14-mer in ELK1 Y2H prey]	3.05
TYRPKRPTTLNLFP [MAPK8IP1, D-site 14-mer in ELK1 Y2H prey]	3.22
PLPRRTRRPLLLPR [HPS4, D-site 14-mer in ELK1 Y2H prey]	7.88
RKKKLTMRPLVLQK [MAP3K19, D-site 14-mer in ELK1 Y2H prey]	3.59
LKQRRRAQKLHFLQ [DDX54, D-site 14-mer in ELK1 Y2H prey]	3.41
RRQHRPPALLTLYP [DOCK6, D-site 14-mer in ELK1 Y2H prey]	3.71
PGRRQNTIVVKVPG [BANP, D-site 14-mer in ELK1 Y2H prey]	5.25
LKQRTRPLLINLSK [MCTP2, D-site 14-mer in ELK1 Y2H prey]	3.77
SLKKKIQPKLSLTL [JAZF1, D-site 14-mer in ELK1 Y2H prey]	5.24
CKLKMKPRPIAILQ [TTN, D-site 14-mer in ELK1 Y2H prey]	7.96
HFRHKSQLRLHLRQ [BCL6, D-site 14-mer in ELK1 Y2H prey]	5.64
KKFRHRPEPLFIPP [TRERF1, D-site 14-mer in ELK1 Y2H prey]	19.05
CELPRRNCLLPFSN [NSD1, D-site 14-mer in ELK1 Y2H prey]	3.49
KRWLRKPRPVSLFS [GTF3C1, D-site 14-mer in ELK1 Y2H prey]	5.35
RKKDRPRKHLTLNN [SP100, D-site 14-mer in ELK1 Y2H prey]	3.83
LRKKPDLSPLKLTI [TTC41P, D-site 14-mer in ELK1 Y2H prey]	5.81
PDRKAKPTPLDLRN [GAB2, D-site 14-mer in ELK1 Y2H prey]	7.63
NGRREKRKQLTLPS [TBX2, D-site 14-mer in ELK1 Y2H prey]	10.21
ITKAIRDRLLFLRQ [NBAS, D-site 14-mer in ELK1 Y2H prey]	3.64
LQRKGGPTRLTLPS [CMIP, D-site 14-mer in ELK1 Y2H prey]	4.12
EKVKRKKNVLRLCC [PRAME, D-site 14-mer in ELK1 Y2H prey]	4.69
SGMRARRGLLRLPR [B4GALT5, D-site 14-mer in ELK1 Y2H prey]	5.95

Sequence	Z-score (ES) of hit sequences, WT ERK2 Y2H screen
TRQKHAKKHLGFFR [UTP23, D-site 14-mer in ELK1 Y2H prey]	3.13
PTKTKPKKLLFLGS [SMG1, D-site 14-mer in ELK1 Y2H prey]	3.46
KGKSKRKKDLRISC [MAP2K3, D-site 14-mer in ELK1 Y2H prey]	10.02
FTLKAKRPGLRLPD [FLRT1, D-site 14-mer in ELK1 Y2H prey]	4.42
PPVKKKPKLLNLKD [SIN3A, D-site 14-mer in ELK1 Y2H prey]	4.29
KTQRLDVAKVCLGN [IFT140, D-site 14-mer in ELK1 Y2H prey]	4.26
KKARGKPVRLRLSS [MELK, D-site 14-mer in ELK1 Y2H prey]	7.57
PKGKNRPSSLNLDP [ARHGAP31, D-site 14-mer in ELK1 Y2H prey]	3.62
ARGQRSVLQVPLPV [CRNKL1, D-site 14-mer in ELK1 Y2H prey]	4.21
PGKRGRPRKLKLCK [MGA, D-site 14-mer in ELK1 Y2H prey]	8.03
ALLRKINQVLLFLL [GLT8D2, D-site 14-mer in ELK1 Y2H prey]	5.93
PKDKKRPTPLEIGY [PCLO, D-site 14-mer in ELK1 Y2H prey]	4.93
RLQSRKPPNLSITI [RHBDF2, D-site 14-mer in ELK1 Y2H prey]	20.42
DTPIRKKEELLFDD [FBF1, D-site 14-mer in ELK1 Y2H prey]	3.49
SRKQRQPARLQLPA [ZBTB45, D-site 14-mer in ELK1 Y2H prey]	3.70
SLARAKRPSVSFAE [SCARF1, D-site 14-mer in ELK1 Y2H prey]	5.09
KRSKKNSLALSLTA [ESR1, D-site 14-mer in ELK1 Y2H prey]	5.11
KKRKIPKLVLRINA [DENND2A, D-site 14-mer in ELK1 Y2H prey]	11.21
AAGRRAAPYLVLTA [TFR2, D-site 14-mer in ELK1 Y2H prey]	3.19
GLTARRLLPLRLPP [MLYCD, D-site 14-mer in ELK1 Y2H prey]	14.29
PMKQKRKLRLYISN [SMARCD3, D-site 14-mer in ELK1 Y2H prey]	6.57
PWRTTKPQPLVLSQ [PROX2, D-site 14-mer in ELK1 Y2H prey]	3.19
KKRKKKRLVINLSS [TTLL6, D-site 14-mer in ELK1 Y2H prey]	10.00
QLPPRKLPTLKLTP [MTX3, D-site 14-mer in ELK1 Y2H prey]	3.25
SGDPRKPRQLTVGD [ZMYND15, D-site 14-mer in ELK1 Y2H prey]	5.02
